Measured values taken from patent publication US7273848B2, “Apolipoprotein A-I agonists and their use to treat dyslipidemic disorders” (priority 1997, dated 2007).
No end group written: not given here.

What was measured:
[1] = Circular dichroism helicity determination; type: physicochemical; conditions: percent helicity; for He (%) TFE: 5 μM peptide, 90% vol TFE; for He (%) free: unbound peptide 5 μM in 5 mM phosphate buffer, pH 7.4, 37° C.; for He (%) mics: peptide-micelle complexes, Ri=100, 37° C.
In short: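 Far-UV CD (190–260 nm) at 37° C on 5 μM peptide in 5 mM phosphate pH 7.4, free, with EPC:Chol 20:1 SUVs (Ri 30 or 50), lysophosphatidylcholine micelles (Ri 100) or 90% TFE. Spectra converted to molar ellipticity per residue; helicity from 222 nm ellipticity or CONTIN fitting to reference spectra, ±5%.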

[2] = target: T1, LCAT (purified from human plasma) (Homo sapiens, UniProt P04180); assay: LCAT activation assay; type: biochemical; conditions: LCAT activation as compared with native human ApoA-I (= 100%), equivalent masses
T1 construct: from tissue; host or cells: human plasma
T1 sequence (P04180 25-440): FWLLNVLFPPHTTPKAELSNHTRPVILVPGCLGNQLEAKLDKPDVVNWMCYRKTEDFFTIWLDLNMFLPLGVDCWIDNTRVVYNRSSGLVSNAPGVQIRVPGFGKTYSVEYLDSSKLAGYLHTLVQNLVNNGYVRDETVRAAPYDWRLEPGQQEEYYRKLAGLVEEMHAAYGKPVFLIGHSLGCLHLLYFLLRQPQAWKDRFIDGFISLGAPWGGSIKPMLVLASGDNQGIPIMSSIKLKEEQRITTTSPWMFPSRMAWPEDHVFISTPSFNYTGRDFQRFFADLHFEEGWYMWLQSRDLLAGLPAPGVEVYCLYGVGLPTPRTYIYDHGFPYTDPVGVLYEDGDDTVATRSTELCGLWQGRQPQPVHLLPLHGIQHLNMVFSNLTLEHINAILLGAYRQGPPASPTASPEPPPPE
In short: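 Activity was expressed as percentage conversion of radiolabelled cholesterol to cholesteryl ester, normalised to native ApoA-I as 100%. LCAT purified from human plasma was added to peptide-preincubated EPC or POPC/cholesterol (20:1) small unilamellar vesicles at pH 7.4. Specific activity is the peptide concentration reaching the conversion plateau at a fixed timepoint.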

Sequence	He (%) TFE ([1]; 37° C.)	He (%) free [1]	He (%) SUVs ([1]; peptide-SUV complexes (20:1 EPC:Chol., Ri=30 and Ri=50), 37° C.)	He (%) mics [1]	ACTIVITY (%) LCAT [2]
PVLELFENLLERLLDALQKKLK [peptide 146]	95%	97%	100%	100%	86%
PVLELFENLWERLLDALQKKLK [peptide 149]	47%	28%		54%	63%
